{
  "source": "patent US10759816B2",
  "about": "“Heterocyclic compounds as RSV inhibitors” (Enanta Pharmaceuticals, Inc., priority 2016, dated 2020)",
  "data": [
    {"test_system": "genotype A, \"Long\" strain RSV", "test": "RSV-A in vitro cytoprotection assay in HEp-2 cells (ATPlite readout of cell viability)", "type": "cell-based, Human respiratory syncytial virus", "conditions": "human respiratory syncytial virus, HEp-2, HEp-2 cells, genotype A “Long” strain RSV, cytoprotection; read-out: Human RSV-A (“Long” strain) EC50", "method_in_brief": "(§1)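 Cytoprotection measured as ATP-based luminescence (ATPlite) after 4-day incubation of RSV Long-infected HEp-2 cells (8,000/well, 10% FBS DMEM) with 2-fold serial compound dilutions in duplicate. Identically treated virus-free plate gives cytotoxicity; EC50 calculated from viability.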", "units": {"EC50": "nM"}, "values": [
      {"smiles": "Cc1cccc(F)c1NC(=O)c1cc2c(s1)-c1ccccc1N(C(=O)c1cccc(N3CCC4C(C3)C4(F)F)n1)CC2", "note": "(centres unmarked) [Example 374]", "EC50": "400 to 800"},
      {"smiles": "O=C(NC1CC1)c1nc2c(s1)CCN(C(=O)c1cccc(N3CCCOCC3)n1)c1ccccc1-2", "note": "[Example 108]", "EC50": "400 to 800"},
      {"smiles": "O=C(NC1CC1)c1cc2c(s1)-c1ccccc1N(C(=O)c1cccc(C3=CCN(C4COC4)CC3)n1)CC2", "note": "[Example 56]", "EC50": "> 800"},
      {"smiles": "COC(C)(C)Cn1cnnc1-c1cccc(C(=O)N2CCc3cc(C(=O)NC4CC4)sc3-c3ccccc32)n1", "note": "[Example 125]", "EC50": "> 800"},
      {"smiles": "Cc1cccc(F)c1NC(=O)c1cc2c(s1)-c1ccccc1N(C(=O)c1cccc(NC3CS(=O)(=O)c4ccccc43)n1)CC2", "note": "(centres unmarked) [Example 476]", "EC50": "< 400"},
      {"smiles": "O=C(N[C@@H]1CCOC1)c1cc2c(s1)-c1ccccc1N(C(=O)c1cccc(N3CCOc4ccccc4C3)n1)CC2", "note": "[Example 309]", "EC50": "< 400"},
      {"smiles": "O=C(NC1CC1)c1cc2c(s1)-c1ccccc1N(C(=O)c1ccc(F)c(N3CCOCC3)n1)CC2", "note": "[Example 44]", "EC50": "400 to 800"},
      {"smiles": "Cc1cccc(F)c1NC(=O)c1cc2c(s1)-c1ccccc1N(C(=O)c1cccc(-n3c(=O)[nH]c4ccccc43)n1)CC2", "note": "[Example 450]", "EC50": "< 400"},
      {"smiles": "Cc1ccc2c(-c3cccc(C(=O)N4CCc5cc(C(=O)Nc6c(C)cccc6F)sc5-c5ccccc54)n3)cn(C(=O)OC(C)(C)C)c2c1", "note": "[Example 246]", "EC50": "> 800"},
      {"smiles": "Cc1cccc(F)c1NC(=O)c1cc2c(s1)-c1ccccc1N(C(=O)c1cccc(-c3conc3C)n1)CC2", "note": "[Example 261]", "EC50": "< 400"},
      {"smiles": "Cc1cccc(F)c1NC(=O)c1cc2c(s1)-c1ccccc1N(C(=O)c1cccc(-n3cc(C#N)cn3)n1)CC2", "note": "[Example 143]", "EC50": "> 800"},
      {"smiles": "O=C(NC1CC1)c1cc2c(s1)-c1ccccc1N(C(=O)c1ccnc(N3CCOCC3)c1)CC2", "note": "[Example 46]", "EC50": "> 800"},
      {"smiles": "CC(C)Oc1ccc(-c2cccc(C(=O)N3CCc4cc(C(=O)NC5CC5)sc4-c4ccccc43)n2)cn1", "note": "[Example 75]", "EC50": "400 to 800"},
      {"smiles": "Cc1cccc(F)c1NC(=O)c1cc2c(s1)-c1ccccc1N(C(=O)c1cccc(NCC3(CS(C)(=O)=O)CC3)n1)CC2", "note": "[Example 467]", "EC50": "400 to 800"},
      {"smiles": "COc1ccc(-c2cccc(C(=O)N3CCc4cc(C(=O)NC5CC5)sc4-c4ccccc43)n2)cc1", "note": "[Example 62]", "EC50": "400 to 800"},
      {"smiles": "Cc1cnc(N2CCOCC2)c(NC(=O)c2ccc(C(=O)N3CCc4cc(C(=O)Nc5c(C)cccc5F)sc4-c4ccccc43)cc2)c1", "note": "[Example 137]", "EC50": "> 800"},
      {"smiles": "O=C(NC1CC1)c1cc2c(s1)-c1ccccc1N(C(=O)c1cccc(-c3ccnc(N4CCOCC4)c3)n1)CC2", "note": "[Example 85]", "EC50": "< 400"},
      {"smiles": "COc1ccc(-c2cccc(C(=O)N3CCc4cc(C(=O)N(C)C)sc4-c4ccccc43)n2)cn1", "note": "[Example 95]", "EC50": "400 to 800"},
      {"smiles": "COc1ccc(-n2cncc2-c2cccc(C(=O)N3CCc4cc(C(=O)Nc5c(C)cccc5F)sc4-c4ccccc43)n2)cc1", "note": "[Example 204]", "EC50": "> 800"},
      {"smiles": "Cc1cccc(F)c1NC(=O)c1cc2c(s1)-c1ccccc1N(C(=O)c1cccc(-c3ccn(C)n3)n1)CC2", "note": "[Example 235]", "EC50": "> 800"},
      {"smiles": "N#Cc1ccc(-c2cccc(C(=O)N3CCc4cc(C(=O)NC5CC5)sc4-c4ccccc43)n2)cn1", "note": "[Example 78]", "EC50": "400 to 800"},
      {"smiles": "O=C(NC1CS(=O)(=O)C1)c1cc2c(s1)-c1ccccc1N(C(=O)c1cccc(-c3c[nH]nc3C3CC3)n1)CC2", "note": "[Example 181]", "EC50": "> 800"},
      {"smiles": "Cc1cccc(F)c1NC(=O)c1cc2c(s1)-c1ccccc1N(C(=O)c1cccc(-c3cnn(S(C)(=O)=O)c3C3CC3)n1)CC2", "note": "[Example 216]", "EC50": "< 400"},
      {"smiles": "Cc1cccc(F)c1NC(=O)c1cc2c(o1)-c1ccccc1N(C(=O)c1cccc(-c3c[nH]c4ncccc34)n1)CC2", "note": "[Example 274]", "EC50": "< 400"},
      {"smiles": "Cc1cccc(F)c1NC(=O)c1cc2c(s1)-c1ccccc1N(C(=O)c1cccc(N3C(=O)OC[C@H]3c3ccccc3)n1)CC2", "note": "[Example 424]", "EC50": "> 800"},
      {"smiles": "CC(=O)N1CCCN(c2cccc(C(=O)N3CCc4cc(C(=O)Nc5c(C)cccc5F)sc4-c4ccccc43)n2)CC1", "note": "[Example 387]", "EC50": "< 400"},
      {"smiles": "Cc1ccc2c(-c3cccc(C(=O)N4CCc5cc(C(=O)Nc6c(C)cccc6F)sc5-c5ccccc54)n3)c[nH]c2c1", "note": "[Example 247]", "EC50": "< 400"},
      {"smiles": "Cc1cccc(F)c1NC(=O)c1cc2c(s1)-c1ccccc1N(C(=O)c1cccc(N3C[C@@H]4C[C@H]3CO4)n1)CC2", "note": "[Example 430]", "EC50": "< 400"},
      {"smiles": "O=C(NC1CC1)c1cc2c(s1)-c1ccccc1N(C(=O)c1cccc(-c3ccnc(C4CC4)c3)n1)CC2", "note": "[Example 166]", "EC50": "> 800"},
      {"smiles": "Cc1cccc(F)c1NC(=O)c1cc2c(s1)-c1ccccc1N(C(=O)c1cccc(N3CCS(=O)(=O)c4ccccc4C3)n1)CC2", "note": "[Example 419]", "EC50": "< 400"},
      {"smiles": "Cc1cccc(F)c1NC(=O)c1cc2c(s1)-c1ccccc1N(C(=O)c1cccc(NCc3ncco3)n1)CC2", "note": "[Example 350]", "EC50": "< 400"},
      {"smiles": "Cc1cccc(F)c1NC(=O)c1cc2c(s1)-c1ccccc1N(C(=O)c1cccc(N3C[C@H]4C[C@@H]3CO4)n1)CC2", "note": "[Example 429]", "EC50": "< 400"},
      {"smiles": "O=C(NCc1ccccc1)c1cc2c(s1)-c1ccccc1N(C(=O)c1cccc(N3CCOc4ccccc4C3)n1)CC2", "note": "[Example 305]", "EC50": "400 to 800"},
      {"smiles": "O=C(NC1CC1)c1cc2c(s1)-c1ccccc1N(C(=O)c1cccc(N3CCOc4ccc(Cl)cc4C3)n1)CC2", "note": "[Example 279]", "EC50": "< 400"},
      {"smiles": "O=C(NC1CC1)c1cc2c(s1)-c1ccccc1N(C(=O)c1cccc(-c3cnn(C4COC4)c3)n1)CC2", "note": "[Example 158]", "EC50": "> 800"},
      {"smiles": "Nc1cccc2c1C(=O)N(c1cccc(C(=O)N3CCc4cc(C(=O)NC5CC5)sc4-c4ccccc43)n1)C2", "note": "[Example 413]", "EC50": "> 800"},
      {"smiles": "Cc1cccc(F)c1NC(=O)c1cc2c(s1)-c1ccccc1N(C(=O)c1cccc(N3CCS(=O)(=O)c4c(F)cccc4C3)n1)CC2", "note": "[Example 435]", "EC50": "< 400"},
      {"smiles": "CN1CCCN(c2cccc(C(=O)N3CCc4cc(C(=O)NC5CC5)sc4-c4ccccc43)n2)CC1", "note": "[Example 36]", "EC50": "400 to 800"},
      {"smiles": "COCCN(C)c1cccc(C(=O)N2CCc3cc(C(=O)NC4CC4)sc3-c3ccccc32)n1", "note": "[Example 34]", "EC50": "400 to 800"},
      {"smiles": "Cc1cccc(F)c1NC(=O)c1cc2c(s1)-c1ccccc1N(C(=O)c1cccc(-c3cn(C(=O)N(C)C)nc3C3CC3)n1)CC2", "note": "[Example 219]", "EC50": "400 to 800"},
      {"smiles": "COc1ccccc1[C@H](C)Nc1cccc(C(=O)N2CCc3cc(C(=O)Nc4c(C)cccc4F)sc3-c3ccccc32)n1", "note": "[Example 347]", "EC50": "> 800"},
      {"smiles": "O=C(NC1CC(F)(F)C1)c1cc2c(s1)-c1ccccc1N(C(=O)c1cccc(-c3c[nH]nc3C3CC3)n1)CC2", "note": "[Example 179]", "EC50": "< 400"},
      {"smiles": "Cc1cccc(F)c1NC(=O)c1ccc2c(c1)CCN(C(=O)c1cccc(N3CCCOCC3)n1)c1ccccc1-2", "note": "[Example 396]", "EC50": "> 800"},
      {"smiles": "Cc1cccc(F)c1NC(=O)c1cc2c(s1)-c1ccccc1N(C(=O)c1cccc(-n3ccnc3C3CCC3)n1)CC2", "note": "[Example 147]", "EC50": "< 400"},
      {"smiles": "Cc1cccc(F)c1NC(=O)c1cc2c(s1)-c1ccccc1N(C(=O)c1cccc(-c3cn(C(=O)OC(C)(C)C)c4ccc(Cl)cc34)n1)CC2", "note": "[Example 248]", "EC50": "> 800"},
      {"smiles": "Cc1cccc(F)c1NC(=O)c1cc2c(s1)-c1ccccc1N(C(=O)c1cccc(N3C[C@@H](NC(=O)OC(C)(C)C)C[C@@H]3C)n1)CC2", "note": "[Example 389]", "EC50": "< 400"}
    ]},
    {"test_system": "genotype A, \"Long\" strain RSV", "test": "RSV-A in vitro cytoprotection assay in HEp-2 cells (ATPlite readout of cell viability)", "type": "cell-based, Human respiratory syncytial virus", "conditions": "human respiratory syncytial virus, HEp-2, read-out: Human RSV-A (“Long” strain) EC50", "method_in_brief": "as §1", "units": {"EC50": "nM"}, "values": [
      {"smiles": "Cc1ccc2c(c1)c(-c1cccc(C(=O)N3CCc4cc(C(=O)Nc5c(C)cccc5F)sc4-c4ccccc43)n1)cn2[Si](C)(C)C(C)(C)C", "note": "[Example 254]", "EC50": "> 800"}
    ]}
  ]
}
